Data reported in patent publication US11066409B2, “Bicyclic nitrogen-containing heterocyclic derivatives and pharmaceutical composition comprising the same” (Shionogi & Co., Ltd., priority 2016, dated 2021).
pIC50: −log10 of the molar value.

Target: human P2X7 receptor (Homo sapiens (Human), UniProt Q99572, R270H)
Test: Evaluation of a human P2X7 receptor inhibitory activity (Yo-Pro uptake, BzATP stimulation, FLIPR TETRA)
Type: cell-based
Details: 1321N1 cells stably expressing human P2X7 receptor, Yo-Pro fluorescence
Experimental: Evaluation of a human P2X7 receptor inhibitory activity Stably expressing cell line (1321N1 cell transfected with the human P2X7 receptor gene (GenBank accession number NM_002562.5 including T606C and G952A SNP)) was used. The cells were seeded in a 384-well microtiter plate at a concentration of 8000 cells/well and cultured in the medium (10% fetal bovine serum, 25 mM HEPES, 1% penicillin and streptomycin in DMEM) for one day at 37° C. under 5% carbon dioxide atmosphere. After replacing with 20 μL of the HBSS buffer (20 mM HEPES, 55.6 mM D-glucose, 1× HBSS(−), pH7.4-7.5), 15 μL of 17.3 μM Yo-Pro solution in the HBSS buffer was added. The plate was placed in high-throughput cellular screening system FLIPR TETRA (Molecullar Devices, LLC.) and 15 μL of 130 μM BzATP solution in the HBSS buffer was added. Measurement of fluorescence intensity by FLIPR TETRA was started. After eight minutes, 15 μL of DMSO solutions containing different concentrations of the compound of the present invention as prepared by dilution with the HBSS buffer were dispensed to each well through the built-in automatic dispenser, and the measurement of fluorescence intensity was continued for 20 minutes. The maximum fluorescence intensity without the compound of the present invention is calculated as 0% inhibition and the maximum fluorescence intensity when the reference compound was added is calculated as 100% inhibition. Changing values of fluorescence intensity by the compound of the present invention were calculated by difference between maximum and minimum fluorescence intensity for 20 minutes. Inhibition ratios (%) were calculated from the following equation:
[formula] IC50 was calculated using logistic approximation.
As for IC50 value, value to below 10 nmol/L is represented as “A”, value from 10 nmol/L to below 100 nmol/L is represented as “B”, value from 100 nmol/L to below 500 nmol/L is represented as “C”, and value from 500 nmol/L to below 1 μmol/L is represented as “D”.

Sequence of human P2X7 receptor (Q99572 whole entry R270H): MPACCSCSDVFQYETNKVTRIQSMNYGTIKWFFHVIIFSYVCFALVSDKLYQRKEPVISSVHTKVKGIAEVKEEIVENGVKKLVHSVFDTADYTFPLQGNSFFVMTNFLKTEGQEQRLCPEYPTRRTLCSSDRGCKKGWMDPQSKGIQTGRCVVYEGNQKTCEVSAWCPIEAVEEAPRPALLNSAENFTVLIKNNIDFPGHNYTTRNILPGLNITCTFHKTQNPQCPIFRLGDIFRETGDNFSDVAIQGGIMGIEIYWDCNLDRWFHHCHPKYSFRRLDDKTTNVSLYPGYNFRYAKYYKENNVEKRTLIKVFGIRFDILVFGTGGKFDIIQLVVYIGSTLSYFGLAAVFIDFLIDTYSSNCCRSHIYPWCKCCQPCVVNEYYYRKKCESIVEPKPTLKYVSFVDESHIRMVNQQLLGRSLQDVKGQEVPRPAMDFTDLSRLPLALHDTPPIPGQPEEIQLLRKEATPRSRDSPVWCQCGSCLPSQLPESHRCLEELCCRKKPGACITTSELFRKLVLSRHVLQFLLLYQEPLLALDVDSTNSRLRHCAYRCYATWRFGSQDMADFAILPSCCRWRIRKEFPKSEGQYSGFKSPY

Row | SMILES | pIC50
1 | Cc1cc(C)c(Nc2nc(=O)cc3n2C(c2ccccc2)CN3C)cc1C (stereo not shown) [Compound I-0106] | 7.96
2 | CCN1C(=O)N=C(Nc2cc(C)c(C)cc2C)N2C1=NCC2c1ccccc1 (stereo not shown) [Compound I-0107] | 7.60
3 | COc1cc(NC2=NC(=O)N(C)C3=NCC(c4ccc(F)cc4)N23)c(C)cc1F (stereo not shown) [Compound I-0150] | 7.74
4 | COc1ccc(NC2=NC(=O)N(C)C3=NCC(c4ccc(F)cc4)N23)c(C)c1F (stereo not shown) [Compound I-0151] | 7.85

Same assay, conditions: 1321N1 cells stably expressing human P2X7 receptor, Yo-Pro fluorescence, class symbols

Row | SMILES | pIC50
5 | COc1ccc(C)c(Nc2nc(=O)cc3n2C(c2ccccc2)CN3C)c1 (stereo not shown) [Compound I-0105] | 7.00 to 8.00
6 | COc1ccc(Nc2nc(=O)c(F)c3n2C(c2cc(F)cc(F)c2)CC3)c(C)c1F (stereo not shown) [Compound I-0108] | 7.00 to 8.00
7 | CCN1C(=O)N=C(Nc2cc(C)c(C)cc2C)N2C1=NCC2c1ccc(F)cc1 (stereo not shown) [Compound I-0109] | 7.00 to 8.00
8 | COc1ccc(Nc2nc(=O)cc3n2C(c2ccccc2)CN3C)c(C)c1 (stereo not shown) [Compound I-0110] | > 8.00
9 | CCN1C(=O)N=C(Nc2cc(C)c(C)cc2C)N2C1=NCC2c1ccccc1 (stereo not shown) [Compound I-0111] | > 8.00
10 | CCN1C(=O)N=C(Nc2ccc(C)nc2C)N2C1=NCC2c1ccc(F)cc1 (stereo not shown) [Compound I-0112] | 6.00 to 6.30
11 | CN1C(=O)N=C(Nc2cc(C3CC3)nn2C)N2C1=NCC2c1ccc(F)cc1 (stereo not shown) [Compound I-0113] | 6.00 to 6.30
12 | Cc1ccc(NC2=NC(=O)N(C)C3=NCC(c4cc(F)cc(F)c4)N23)c(C)n1 (stereo not shown) [Compound I-0114] | 6.30 to 7.00
13 | Cc1ccc(NC2=NC(=O)N(C)C3=NCC(c4ccc(F)c(F)c4)N23)c(C)n1 (stereo not shown) [Compound I-0115] | 6.30 to 7.00
14 | COc1cc(NC2=NC(=O)N(C)C3=NCC(c4ccc(F)c(F)c4)N23)c(C)nc1OC (stereo not shown) [Compound I-0116] | 6.30 to 7.00
15 | CCN1C(=O)N=C(Nc2ccc(OC)nc2C)N2C1=NCC2c1ccc(F)cc1 (stereo not shown) [Compound I-0117] | 6.30 to 7.00
16 | CCN1C(=O)N=C(Nc2cc(OC)c(OC)nc2C)N2C1=NCC2c1ccc(F)cc1 (stereo not shown) [Compound I-0118] | 6.30 to 7.00
17 | COc1ccc(NC2=NC(=O)N(C)C3=NCC(c4ccc(F)cc4)N23)c(C)n1 (stereo not shown) [Compound I-0119] | 7.00 to 8.00
18 | Cc1ccc(NC2=NC(=O)N(C)C3=NCC(c4ccc(F)cc4)N23)c(C)n1 (stereo not shown) [Compound I-0120] | 6.30 to 7.00
19 | COc1cc(C)c(NC2=NC(=O)N(C)C3=NCC(c4ccc(F)cc4)N23)cc1OC (stereo not shown) [Compound I-0121] | 7.00 to 8.00
20 | COc1ccc(NC2=NC(=O)N(C)C3=NCC(c4cc(F)cc(F)c4)N23)c(C)c1 (stereo not shown) [Compound I-0122] | 7.00 to 8.00
21 | COc1cnc(C)c(Nc2nc(=O)c(F)c3n2C(c2cc(F)cc(F)c2)CC3)c1 (stereo not shown) [Compound I-0123] | 7.00 to 8.00
22 | COc1ccc(C)c(NC2=NC(=O)N(C)C3=NCC(c4ccc(F)c(F)c4)N23)c1 (stereo not shown) [Compound I-0124] | 7.00 to 8.00
23 | COc1ccc(NC2=NC(=O)N(C)C3=NCC(c4ccc(F)c(F)c4)N23)c(C)c1 (stereo not shown) [Compound I-0125] | 7.00 to 8.00
24 | COc1cc(C)c(NC2=NC(=O)N(C)C3=NCC(c4ccc(F)c(F)c4)N23)cc1OC (stereo not shown) [Compound I-0126] | 7.00 to 8.00
25 | COc1ccc(NC2=NC(=O)N(C)C3=NCC(c4ccc(F)c(F)c4)N23)c(C)n1 (stereo not shown) [Compound I-0127] | 7.00 to 8.00

Row | SMILES | pIC50
26 | COc1cc(Nc2nc(=O)cc3n2C(c2cc(F)cc(F)c2)CN3)c(C)cc1F (stereo not shown) [Compound I-0128] | 7.00 to 8.00
27 | COc1ccc(C)c(NC2=NC(=O)N(C)C3=NCC(c4ccc(F)cc4)N23)c1 (stereo not shown) [Compound I-0129] | 7.00 to 8.00
28 | COc1ccc(NC2=NC(=O)N(C)C3=NCC(c4ccc(F)cc4)N23)c(C)c1 (stereo not shown) [Compound I-0130] | 7.00 to 8.00
29 | COc1ccc(C)c(NC2=NC(=O)N(C)C3=NCC(c4cc(F)cc(F)c4)N23)c1 (stereo not shown) [Compound I-0131] | 7.00 to 8.00
30 | COc1cc(C)c(NC2=NC(=O)N(C)C3=NCC(c4cc(F)cc(F)c4)N23)cc1OC (stereo not shown) [Compound I-0132] | 7.00 to 8.00
31 | COc1cc(NC2=NC(=O)N(C)C3=NCC(c4cc(F)cc(F)c4)N23)c(C)nc1OC (stereo not shown) [Compound I-0133] | 7.00 to 8.00
32 | COc1cc(Nc2nc(=O)cc3n2C(c2cc(F)cc(F)c2)CN3)c(C)cc1F (stereo not shown) [Compound I-0134] | > 8.00
33 | COc1nc(C)c(Nc2nc(=O)c(F)c3n2C(c2cc(F)cc(F)c2)CC3)cc1C (stereo not shown) [Compound I-0136] | 7.00 to 8.00
34 | COc1ccc(NC2=NC(=O)N(C)C3=NCC(c4cc(F)cc(F)c4)N23)c(C)c1F (stereo not shown) [Compound I-0137] | 7.00 to 8.00
35 | CCN1C(=O)N=C(Nc2cc(OC)c(OC)cc2C)N2C1=NCC2c1ccc(F)cc1 (stereo not shown) [Compound I-0138] | 7.00 to 8.00
36 | CCN1C(=O)N=C(Nc2cc(OC)ccc2C)N2C1=NCC2c1ccc(F)cc1 (stereo not shown) [Compound I-0139] | 7.00 to 8.00
37 | CCN1C(=O)N=C(Nc2ccc(OC)cc2C)N2C1=NCC2c1ccc(F)cc1 (stereo not shown) [Compound I-0140] | 7.00 to 8.00
38 | COc1nc(C)c(Nc2nc(=O)c(F)c3n2C(c2cc(F)cc(F)c2)CC3)cc1F (stereo not shown) [Compound I-0141] | 7.00 to 8.00
39 | COc1ccc(NC2=NC(=O)N(C)C3=NCC(c4cc(F)c(F)c(F)c4)N23)c(C)n1 (stereo not shown) [Compound I-0143] | 7.00 to 8.00
40 | COc1ccc(NC2=NC(=O)N(C)C3=NCC(c4cc(F)cc(F)c4)N23)c(C)n1 (stereo not shown) [Compound I-0144] | 7.00 to 8.00
41 | Cc1ccc(C#N)cc1NC1=NC(=O)N(C)C2=NCC(c3cc(F)cc(F)c3)N12 (stereo not shown) [Compound I-0146] | 7.00 to 8.00
42 | COc1cc(NC2=NC(=O)N(C)C3=NCC(c4cc(F)cc(F)c4)N23)c(C)cc1F (stereo not shown) [Compound I-0148] | 7.00 to 8.00
43 | COc1cc(C)c(Nc2nc(=O)c(F)c3n2C(c2ccc(F)cc2)CN3C)cc1OC (stereo not shown) [Compound I-0152] | 7.00 to 8.00
44 | COc1cc(C)c(Nc2nc(=O)nc3n2C(c2cc(F)c(F)c(F)c2)CN3)cc1OC (stereo not shown) [Compound I-0153] | 7.00 to 8.00
45 | CCc1nc(OC)ccc1NC1=NC(=O)N(C)C2=NCC(c3cc(F)cc(F)c3)N12 (stereo not shown) [Compound I-0155] | 7.00 to 8.00
46 | Cc1nc2cc(C)c(NC3=NC(=O)N(C)C4=NCC(c5cc(F)c(F)c(F)c5)N34)cc2s1 (stereo not shown) [Compound I-0156] | 7.00 to 8.00

Row | SMILES | pIC50
47 | CCOc1cc(NC2=NC(=O)N(C)C3=NCC(c4cc(F)c(F)c(F)c4)N23)c(C)cc1F (stereo not shown) [Compound I-0157] | 7.00 to 8.00
48 | COc1nc(C)c(NC2=NC(=O)N(C)C3=NCC(c4cc(F)c(F)c(F)c4)N23)cc1C (stereo not shown) [Compound I-0159] | 7.00 to 8.00
49 | COc1ccc(Nc2nc(=O)c(F)c3n2C(c2ccc(F)cc2)CN3C)c(C)n1 (stereo not shown) [Compound I-0160] | 7.00 to 8.00
50 | COc1ccc(Nc2nc(=O)c(F)c3n2C(c2cc(F)c(F)c(F)c2)CN3)c(C)n1 (stereo not shown) [Compound I-0163] | 7.00 to 8.00
51 | CCOc1ccc(NC2=NC(=O)N(C)C3=NCC(c4cc(F)c(F)c(F)c4)N23)c(CC)n1 (stereo not shown) [Compound I-0165] | 7.00 to 8.00
52 | COc1ccc(C)c(Nc2nc(=O)c(F)c3n2C(c2cc(F)c(F)c(F)c2)CN3)c1 (stereo not shown) [Compound I-0166] | 7.00 to 8.00
53 | COc1cc(NC2=NC(=O)N(C)C3=NCC(c4cc(F)c(F)c(F)c4)N23)c(C)nc1OC (stereo not shown) [Compound I-0167] | 6.30 to 7.00
54 | COCCOc1ccc(C)c(NC2=NC(=O)N(C)C3=NCC(Cc4ccccc4)N23)c1 (stereo not shown) [Compound I-0169] | 7.00 to 8.00
55 | COc1cc(C)c(Nc2nc(=O)n(C)c3ncn(Cc4ccccc4)c23)cc1OC [Compound I-0170] | 7.00 to 8.00
56 | Cc1cc(F)c(OCCO)cc1NC1=NC(=O)N(C)C2=NCC(c3cc(F)c(F)c(F)c3)N12 (stereo not shown) [Compound I-0172] | 7.00 to 8.00
57 | COc1ccc(C)c(Nc2nc(=O)n(C)c3ncn(Cc4ccccc4)c23)c1 [Compound I-0173] | 6.00 to 6.30
58 | COc1ccc(Nc2nc(=O)n(C)c3ncn(Cc4ccccc4)c23)c(C)c1 [Compound I-0174] | 6.30 to 7.00
59 | Cc1ncc(CO)cc1NC1=NC(=O)N(C)C2=NCC(c3cc(F)c(F)c(F)c3)N12 (stereo not shown) [Compound I-0175] | 7.00 to 8.00
60 | Cc1ccc(C)c(NC2=NC(=O)N(C)C3=NCC(Cc4ccccc4)N23)c1 (stereo not shown) [Compound I-0177] | 6.30 to 7.00
61 | Cc1ccc(CO)cc1NC1=NC(=O)NC2=NCC(c3cc(F)c(F)c(F)c3)N21 (stereo not shown) [Compound I-0178] | 7.00 to 8.00
62 | Cc1ccc(CO)cc1NC1=NC(=O)N(C)C2=NCC(Cc3ccccc3)N12 (stereo not shown) [Compound I-0179] | 6.30 to 7.00
63 | CCc1ccc(CO)cc1NC1=NC(=O)NC2=NCC(c3cc(F)c(F)c(F)c3)N21 (stereo not shown) [Compound I-0180] | 7.00 to 8.00
64 | Cc1ccc(CCCO)cc1NC1=NC(=O)N(C)C2=NCC(c3cc(F)c(F)c(F)c3)N12 (stereo not shown) [Compound I-0181] | 7.00 to 8.00
65 | COc1nc(C)c(NC2=NC(=O)N(C)C3=NCC(c4cc(F)c(F)c(F)c4)N23)cc1CO (stereo not shown) [Compound I-0182] | 7.00 to 8.00
66 | CCc1ccc(CO)cc1NC1=NC(=O)N(C)C2=NCC(Cc3ccccc3)N12 (stereo not shown) [Compound I-0183] | 6.30 to 7.00
67 | Cc1ccc(CC(F)(F)CO)cc1NC1=NC(=O)N(C)C2=NCC(c3cc(F)c(F)c(F)c3)N12 (stereo not shown) [Compound I-0184] | 7.00 to 8.00
